Experimental data as given in patent US9394250B2, “Substituted pyrrolidines as factor xia inhibitors for the treatment thromboembolic diseases” (ONO PHARMACEUTICAL CO., LTD., priority 2012, dated 2016).
Counter-ions that a name gives are not always drawn.

Assays:
Format in all cases: biochemical
[1] = target: human thrombin (Homo sapiens (Human), UniProt P00734); assay: Thrombin enzyme activity, chromogenic substrate S-2366; conditions: human thrombin 0.12 U/mL, 300 μM S-2366, pH7.4; read-out: In vitro Thrombin inhibitory activity IC50
Method: (§1) Inhibitory activities of compounds of the present invention against factor XIa, Xa, XIIa, IXa, VIIa, plasma kallikrein or thrombin were evaluated using appropriate purified proteases and synthetic substrates. The rate of hydrolysis of the chromogenic substrate by the relevant protease was continuously measured at 405 nm. Inhibitory activity against each enzyme was calculated as % inhibition using the equation described below. % Inhibition=[[(rate without compound)−(rate with compound)]/(rate without compound)]×100%. Each half maximal inhibitory concentration (IC50) value was determined by plotting the concentration of compound of the invention against the % inhibition. (1-1) Factor XIa Enzyme Activity
(§2) Human Factor Xa (American Diagnostica Inc.) and human thrombin (Sigma) activities were measured at the enzyme concentrations of 0.18 U/mL and 0.12 U/mL, respectively in the same buffer containing 150 mM NaCl, 2 mg/mL PEG6000, 50 mM Tris-HCl (pH7.4), except that the reactions were started with 300 μM S-2222 ([…], Chromogenix) and 300 μM S-2366, respectively.

[2] = target: Human Factor Xa (Homo sapiens (Human), UniProt P00742); assay: Factor Xa enzyme activity, chromogenic substrate S-2222; conditions: human Factor Xa 0.18 U/mL, 300 μM S-2222, pH7.4; read-out: In vitro FXa inhibitory activity IC50
Method: as §1, §2

[3] = target: Human Factor XIa (Homo sapiens (Human), UniProt P03951); assay: Factor XIa enzyme activity, chromogenic substrate S-2366; conditions: purified human Factor XIa 0.1 U/mL, 300 μM S-2366, pH7.4; read-out: In vitro FXIa inhibitory activity IC50
Method: as §1
Human Factor XIa (Haematologic Technologies Inc.) activity was measured at an enzyme concentration of 0.1 U/mL in 150 mM NaCl, 5 mM KCl, 1 mg/mL PEG6000, 50 mM HEPES-NaOH (pH7.4) with 300 μM S-2366 (pyroGlu-Pro-Arg-pNA, Chromogenix).

Sequence of Human Factor XIa (P03951 388-625): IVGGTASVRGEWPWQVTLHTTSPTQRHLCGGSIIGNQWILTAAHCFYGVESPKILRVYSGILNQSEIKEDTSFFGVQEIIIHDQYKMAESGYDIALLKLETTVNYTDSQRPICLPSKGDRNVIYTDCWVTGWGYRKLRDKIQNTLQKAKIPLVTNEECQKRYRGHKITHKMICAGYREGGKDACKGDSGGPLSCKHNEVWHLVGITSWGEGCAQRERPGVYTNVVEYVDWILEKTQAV
Sequence of Human Factor XIa (P03951 19-387 partner): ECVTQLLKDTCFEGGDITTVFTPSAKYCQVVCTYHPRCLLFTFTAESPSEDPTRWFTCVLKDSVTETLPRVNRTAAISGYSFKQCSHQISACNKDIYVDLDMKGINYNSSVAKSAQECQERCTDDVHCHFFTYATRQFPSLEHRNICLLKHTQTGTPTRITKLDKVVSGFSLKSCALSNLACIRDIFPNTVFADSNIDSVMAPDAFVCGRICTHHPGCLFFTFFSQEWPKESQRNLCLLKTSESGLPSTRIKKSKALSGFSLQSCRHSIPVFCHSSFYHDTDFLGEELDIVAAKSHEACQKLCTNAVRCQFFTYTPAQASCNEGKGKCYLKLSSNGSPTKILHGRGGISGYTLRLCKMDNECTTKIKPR
Sequence of Human Factor Xa (P00742 235-488): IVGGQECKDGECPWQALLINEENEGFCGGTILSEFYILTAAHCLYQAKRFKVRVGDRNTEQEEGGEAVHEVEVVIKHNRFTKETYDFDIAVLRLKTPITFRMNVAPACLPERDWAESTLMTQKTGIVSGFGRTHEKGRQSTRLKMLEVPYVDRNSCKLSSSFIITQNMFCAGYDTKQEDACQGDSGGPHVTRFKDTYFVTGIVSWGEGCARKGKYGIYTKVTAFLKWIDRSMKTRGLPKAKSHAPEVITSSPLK
Sequence of Human Factor Xa (P00742 41-179 partner): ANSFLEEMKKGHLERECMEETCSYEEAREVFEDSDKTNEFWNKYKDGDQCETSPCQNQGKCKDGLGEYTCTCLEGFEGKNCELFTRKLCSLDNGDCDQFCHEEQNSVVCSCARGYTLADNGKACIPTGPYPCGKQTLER

## COC(=O)Nc1ccc(-c2[nH]c([C@@H]3C[C@H](N4CCN(S(C)(=O)=O)CC4)CN3C(=O)C3CCN(C(=N)N)CC3)nc2Cl)cc1 [Example 99, methyl [4-(2-{(2S,4S)-1-(1-carbamimidoyl-4-piperidinyl)carbonyl]-4-[4-(methylsulfonyl)-1-piperazinyl-2-pyrrolidinyl}-4-chloro-1H-imidazol-5-yl)phenyl]carbamate trihydrochloride]
[1]
  IC50: 84 µM
[2]
  IC50: > 100 µM
[3]
  IC50: 0.0012 µM
